Laboratory results taken from patent US20250327028A1, “ENGINEERED PLATELETS AS TARGETED PROTEIN DEGRADERS” (Wisconsin Alumni Research Foundation, priority 2024, published 2025).

Assays:
HSP90 = experiment: Streptavidin-bead immunoprecipitation of biotin-labeled HSP90 in platelets treated with HAC-B; format: cell-based, BALB/c mice
Experimental: The immunoprecipitation assays based on the streptavidin-biotin system were used to evaluate the engineering efficiency of HAC-B on platelets. The fresh platelets were isolated from the whole blood of BALB/c mice as described above. PBS containing PGE1 ([…]) was adopted to dilute the platelets to a final concentration of 1×10^8 platelets/mL, and a total amount of 2×10^8 platelets (2 mL) was assigned for each sample in one tube. The HAC-B stock solution in DMSO was added to each tube at a final concentration of 2.5, 5, or 10 μM, and then the samples were placed in an orbital shaker with a speed of 50 rpm and incubated for 2 h at room temperature (blank DMSO serve as 0 μM). Meanwhile, other tubes containing the same platelet suspensions were added with HAC-B stock solution at a final concentration of 10 μM, which were shaken at the same conditions for 0.5, 1, 2, 3, or 4 h (the platelet suspension that was centrifugated immediately after HAC-B addition serves as the 0 h group). […] The total proteins in the supernatants were quantified through the BCA assay, and 10 μL of lysate supernatants were saved as the input samples. […]

HSP90 and BRD4 = experiment: co-Immunoprecipitation of BRD4 with anti-HSP90 antibody in 4T1 cell lysate; format: cell-based, murine; details: 4T1 cells, 10 μM, 2 h
Experimental: co-Immunoprecipitation assay: 2×10^6 4T1 cells were seeded in T75 cell culture flasks and cultured for 24 h. Then, the medium in the corresponding flasks was replaced with 15 mL of blank medium with DMSO or iHAC (10 μM). Following incubation for another 2 h, the cells were washed with cold PBS twice and digested with 2 mL of trypsin. As for the iDePMP treatment, 1×10^9 iDePLTs were generated as the above engineering method and suspended in 3 mL of PBS containing thrombin (0.5 U/mL), followed by incubation at 37° C. for 0.5 h. The platelet suspensions were evenly divided and subjected to a sequentially combined centrifugation at 5000 g for 5 min and at 11,000 g for 1 min, followed by further centrifugation at 2500 g for 15 min at room temperature. The combined supernatants were supplemented to 12 mL blank medium to treat 4T1 cells in the relevant flasks. After incubation for 6 h, the cells were washed with cold PBS twice and digested with 2 mL of trypsin. The cell pellets were collected through centrifugation at 1200 rpm for 3 min and washed with cold PBS. The final pellets were directly lysed on ice with RIPA buffer containing PMSF (1 mM) and the phosphatase inhibitor cocktail for 30 min. […] The total proteins in the precleared samples were quantified through the BCA assay, and 20 μL of the precleared solution samples were saved as the input samples. […]

4T1-Luc tumors = experiment: Treatment efficacy in post-surgery BALB/c mice with orthotopic 4T1-Luc breast cancer; format: in vivo; details: 2×10^8 platelets i.v. or free HAC 5 mg/kg i.p., every third day for 4 times
Description: Evaluation of treatment efficacy and biosafety in post-surgical 4T1 tumor-bearing mice: Post-surgery BALB/c mice with orthotopic 4T1-Luc-breast cancer were used to evaluate the tumor recurrence, metastasis, and biosafety profiles after iDePLT or eDePLT treatments. The treatment efficacy of iDePLT was also studied in the post-surgery NSG mice with orthotopic patient-derived xenografts (PDX) breast cancer.
Establishment of post-surgery models with BALB/c mice: 1×10^6 4T1-Luc cells were suspended in a PBS containing 50% Matrigel® (Corning®/354234). Female 8-week-old BALB/c mice were anesthetized and injected with 50 μL of the cell suspensions into the fourth mammary gland fat pads. After the tumor volumes reached about 100-200 mm^3, the tumor-bearing mice were anesthetized and placed under the microscope, followed by surgical resection to totally remove the visible tumor tissues. Following wound closure, the post-surgery mice were randomly assigned to different treatment groups.
Evaluation of treatment efficacy and biosafety in post-surgery BALB/c mice: As for the treatments with platelets, the platelets were freshly isolated from the healthy female BALB/c mice and suspended in PBS for intravenous (i.v.) injection after the necessary engineering. The free iHAC and eHAC were intraperitoneally (i.p.) injected after dispersing in the formulation of 10% DMSO, 40% polyethylene glycol 300 (PEG300), 5% Tween TM-80, and 45% saline. From the same day after surgery, the mice were anesthetized and i.p. injected with D-luciferin potassium salt (150 mg/kg) in 100 μL in PBS. The bioluminescence of post-surgery mice in each group was detected by Perkin Elmer IVIS every five days from the day of surgery, and intensity was analyzed by Living Image Software v.4.3.1. […] During the treatment course, the body weight of each post-surgery mouse was monitored daily. […]

| Compound | concentration dependence of HSP90 tethering in platelets (HSP90; 2 h) | incubation time at which biotin labeling of HSP90 in platelets approaches a maximum (HSP90; HAC-B 10 μM) | BRD4 co-precipitated with anti-HSP90 antibody (HSP90 and BRD4) | lung metastasis (bioluminescence) (4T1-Luc tumors) | tumor recurrence at the surgical site (bioluminescence) (4T1-Luc tumors) |
| --- | --- | --- | --- | --- | --- |
| N#CCN(C(=O)CCCC[C@@H]1SC[C@@H]2NC(=O)N[C@@H]21)S(=O)(=O)c1ccc(C(=O)NCCCn2c(Sc3cc4c(cc3I)OCO4)nc3c(N)ncnc32)cc1 [HAC-B, N-(3-(6-amino-8-((6-iodobenzo[d][1,3]dioxol-5-yl)thio)-9H-purin-9-yl)propyl)-4-(N-(cyanomethyl)-N-(5-((3aS,4S,6aR)-2-oxohexahydro-1H-thieno[3,4-d]imidazol-4-yl)pentanoyl)sulfamoyl)benzamide] | in a concentration-dependent manner | ~2 h | – | – | – |
| Cc1sc2c(c1C)C(c1ccc(Cl)cc1)=N[C@@H](CC(=O)NCc1cn(CCCC(=O)N(CC#N)S(=O)(=O)c3ccc(C(=O)NCCCn4c(Sc5cc6c(cc5I)OCO6)nc5c(N)ncnc54)cc3)nn1)c1nnc(C)n1-2 [iHAC, (S)—N-(3-(6-amino-8-((6-iodobenzo[d][1,3]dioxol-5-yl)thio)-9H-purin-9-yl)propyl)-4-(N-(4-(4-((2-(4-(4-chlorophenyl)-2,3,9-trimethyl-6H-thieno[3,2-f][1,2,4]triazolo[4,3-a][1,4]diazepin-6-yl)acetamido)methyl)-1H-1,2,3-triazol-1-yl)butanoyl)-N-(cyanomethyl)sulfamoyl)benzamide] | – | – | could considerably enhance the interaction between BRD4 and HSP90 | started to exhibit obvious lung metastasis from day 15 after surgery | showed some anti-relapse effect during the dosing time, but the mice finally showed substantially recurrent tumors on day 20 |
